Patent US20220017516A1, “LOX INHIBITORS” (THE INSTITUTE OF CANCER RESEARCH: ROYAL CANCER HOSPITAL, priority 2018, published 2022)
Residue numbers refer to the chain shown, from its start.

Key:
[1] = biological target: T1, LOXL2 (Homo sapiens, UniProt Q9Y4K0); experiment: LOX isoform activity assay (ROS Glo), LOXL2; type: biochemical; settings: 1 hr incubation with enzyme; read-out: LOXL2 IC50 b) 1 hr
T1 construct: purchased R&D Systems/Bio-techne
T1 sequence (Q9Y4K0 26-774): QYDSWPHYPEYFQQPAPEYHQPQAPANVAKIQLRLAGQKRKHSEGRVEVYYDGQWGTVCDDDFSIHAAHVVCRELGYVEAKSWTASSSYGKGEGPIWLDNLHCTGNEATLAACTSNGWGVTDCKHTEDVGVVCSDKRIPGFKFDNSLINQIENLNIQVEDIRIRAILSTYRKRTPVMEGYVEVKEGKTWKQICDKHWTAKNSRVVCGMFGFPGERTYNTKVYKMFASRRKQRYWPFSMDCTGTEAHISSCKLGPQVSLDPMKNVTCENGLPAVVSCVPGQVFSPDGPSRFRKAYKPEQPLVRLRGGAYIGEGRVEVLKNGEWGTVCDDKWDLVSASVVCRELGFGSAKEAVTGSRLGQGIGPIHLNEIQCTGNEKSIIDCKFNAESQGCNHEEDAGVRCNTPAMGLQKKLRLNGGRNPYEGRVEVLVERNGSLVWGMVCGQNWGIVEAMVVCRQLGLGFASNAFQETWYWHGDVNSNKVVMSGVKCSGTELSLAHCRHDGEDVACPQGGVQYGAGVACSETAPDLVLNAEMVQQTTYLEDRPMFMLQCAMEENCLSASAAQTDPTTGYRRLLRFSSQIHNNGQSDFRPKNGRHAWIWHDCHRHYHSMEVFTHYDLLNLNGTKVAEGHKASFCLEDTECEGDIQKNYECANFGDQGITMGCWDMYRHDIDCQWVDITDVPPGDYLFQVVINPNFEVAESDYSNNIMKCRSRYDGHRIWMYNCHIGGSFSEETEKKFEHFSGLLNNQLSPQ
Method: (§1) LOX was extracted from pig skin by previously described methods (Shackleton and Hulmes, 1990). LOXL2 and LOXL3 were obtained from R&D Systems/Bio-techne. The Promega ROS Glo assay kit (G8821) was used to assess enzyme activity. Overall, test compound was added to either 384 well assay plates (Greiner) using a Labcyte Echo™ Acoustic Handler or to 96 well plates for a final assay concentration of 100, 30, 10, 3, 1, 0.3, 0.1, 0.03, 0.01 and 0.003 μM final assay concentration. Enzymes were diluted according to specific pre-determined activity in assay buffer (100 mM CHES, pH 9, 0.05% (w/v) pluronic F-127, 0.5% (w/v) BSA, 1 mM MgCl2, 1 M urea, 100 mM NaCl) and added to the plate. For LOXL2, the mixture was incubated for 20 min, 1 h or 20 h; for LOX and LOXL3, incubation time was 1 h. Cadaverine and H2O2 substrate were then added to each well (final assay concentration 19.56 mM and 25 μM respectively) and the plates were incubated for 1.5 h (for LOX) or 1 h (for LOXL2 and LOXL3) at room temperature. Finally, luciferin detection reagent was added and plates were incubated for 20 min at room temperature, protected from light. Luminescence was measured using a BMG LABTECH PHERAstar FS reader and resulting IC50 values were calculated using GraphPad Prism software.
In another setting, LOXL2 enzyme was diluted according to specific pre-determined activity in assay buffer (100 mM CHES, pH 9, 0.05% (w/v) pluronic F-127, 0.5% (w/v) BSA, 1 mM MgCl2, 1 M urea, 100 mM NaCl). Overall, 0.5 μl test compound was added to 40 μl assay buffer+LOXL2 at 100, 30, 10, 3, 1, 0.3, 0.1, 0.03, 0.01 and 0.003 μM (final concentration) in a 96-well white polystyrene, flat bottom plates (Fisher) and incubated for the indicated time at room temperature. 10 μl of assay buffer containing 97.8 mM cadaverine and 125 μM H2O2 substrate (final assay concentration 19.56 mM and 25 μM respectively) were added to each well and plates were incubated for 1 h at room temperature. Finally, 50 μl per well luciferin detection reagent was added and plates were incubated for 20 min at room temperature, protected from light. Luminescence was measured with an integration time of 500 ms per well using a SpectaMax M5 plate reader and resulting IC50 values were calculated using GraphPad Prism software.

[2] = biological target: T2, LOX (Sus scrofa, UniProt P45845); experiment: LOX isoform activity assay (ROS Glo), LOX; type: biochemical, pig; settings: 1 h incubation with enzyme
T2 construct: LOX was extracted from pig skin by previously described methods; from tissue; host or cells: pig skin
T2 sequence (P45845 1-249): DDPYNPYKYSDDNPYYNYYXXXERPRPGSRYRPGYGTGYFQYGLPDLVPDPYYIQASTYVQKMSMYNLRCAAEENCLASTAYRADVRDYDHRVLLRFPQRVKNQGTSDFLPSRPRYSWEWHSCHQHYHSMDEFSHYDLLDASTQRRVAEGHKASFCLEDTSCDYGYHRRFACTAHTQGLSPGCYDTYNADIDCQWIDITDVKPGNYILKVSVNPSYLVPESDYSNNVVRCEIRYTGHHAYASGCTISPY
Method: as §1

[3] = biological target: T3, LOXL3 (Homo sapiens, UniProt P58215); experiment: LOX isoform activity assay (ROS Glo), LOXL3; type: biochemical; settings: 1 h incubation with enzyme
T3 construct: purchased R&D Systems/Bio-techne
T3 sequence (P58215 26-753): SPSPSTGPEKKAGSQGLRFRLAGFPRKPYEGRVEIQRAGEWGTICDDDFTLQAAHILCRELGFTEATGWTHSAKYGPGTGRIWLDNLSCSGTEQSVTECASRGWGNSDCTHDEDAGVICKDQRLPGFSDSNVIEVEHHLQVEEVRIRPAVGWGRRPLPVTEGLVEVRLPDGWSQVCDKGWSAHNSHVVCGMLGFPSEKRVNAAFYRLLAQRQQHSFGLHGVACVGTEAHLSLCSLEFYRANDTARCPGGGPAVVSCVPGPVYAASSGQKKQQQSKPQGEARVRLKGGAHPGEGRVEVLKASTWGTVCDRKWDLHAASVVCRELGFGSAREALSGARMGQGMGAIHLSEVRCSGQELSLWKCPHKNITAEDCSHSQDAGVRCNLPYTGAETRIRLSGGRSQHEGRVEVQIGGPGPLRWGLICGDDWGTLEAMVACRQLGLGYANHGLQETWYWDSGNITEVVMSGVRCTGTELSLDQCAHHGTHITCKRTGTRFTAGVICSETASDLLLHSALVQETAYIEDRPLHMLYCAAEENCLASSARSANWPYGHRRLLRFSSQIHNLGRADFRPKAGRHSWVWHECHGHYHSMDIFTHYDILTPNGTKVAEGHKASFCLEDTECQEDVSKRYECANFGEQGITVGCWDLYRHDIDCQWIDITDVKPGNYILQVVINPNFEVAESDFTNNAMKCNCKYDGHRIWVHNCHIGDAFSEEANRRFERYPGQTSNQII
Method: as §1

[4] = biological target: T4, LOX (Mus musculus, UniProt P28301); experiment: LOX activity in cysts assay (roGFP2 LOX biosensor in MDCK cysts); type: cell-based; settings: LOX, read-out: Cyst LOX @ 10 uM (% inhibition)
T4 construct: Full length LOX cDNA was then PCR cloned into pEGFP-N1 (Clonetech), or biosensor vector proGFP2—N1; expressed in transfected cells; host or cells: MDCK cells grown as cysts on Matrigel
T4 sequence (P28301 163-411): T2 sequence (P45845 1-249) with X20D, X21T, X22Y, Y31N, T80S, S142N, N188A, K202Q, S224T, E231D
Method: All cell lines used in this study were purchased from American Type Culture Collection (ATCC). Mycoplasma contamination was routinely monitored by PCR. Cells used were not found to be Mycoplasma positive. MDCK cell lines were cultured in Dulbecco's Modified Eagle Medium (DMEM) supplemented with 10% fetal bovine serum (FBS) and 1% Penicillin Streptomycin solution (Pen Strep). For GFP constructs transfection in MDCK cells, lipofectamine 3000 was used according to manufactures protocols. Cells were either selected with G418 (Life Technologies) at 5 mg/ml. All cell culture reagents were purchased from Life Technologies.
To produce MDCK cysts, cells were cultured on Matrigel (Corning) with 2% Matrigel supplemented in DMEM with 10% FBS. Cysts were allowed to form for 10 days before subsequent studies.
Mouse LOX cDNA was purchased from OriGene. Full length LOX cDNA was then PCR cloned into pEGFP-N1 (Clonetech), or biosensor vector proGFP2—N1 (Hanson, 2004) using the following primers, […] (forward primer) and […] (reverse primer). For the insertion into pEGFP-N1 or proGFP2—N1, Nhel and Xhol restriction sites were added to forward and reverse primers accordingly. Mutant LOX constructs were made using QuickChange II site-directed mutagenesis kit (Agilent Technologies) following manufacture's protocol using LOX-GFP as template. To generate, roGFP2 versions of LOX mutant constructs, LOX mutant cDNA was transferred from pEGFP-N1 to proGFP2—N1 using Nhel and Xhol.
All photomicrographs were taken with a Leica TCS SP8 X confocal system. For LOX biosensor imaging, live MDCK cysts were used. The oxidised biosensor was excited using a 405 nm laser, while the reduced biosensor was excited with a 488 nm laser. Emission of the biosensor was recorded at 500 nm-530 nm range using sequential scans. Ratio images were generated following a published protocol {Kardash, 2011 #376}. Note, while the published protocol generates YFP/CFP ratio images, we used it to generate Oxidised/Reduced (roGFP2 ratio) ratio images. The roGFP2 ratio at the basal surface of MDCK cysts was used to indicate LOX inhibition. LOX inhibitors were added 30 min prior to imaging.
For clarity, readout for DMSO treated cysts represents 0% inhibition (no inhibition) and readout for BAPN at 1 mM is used as 100% inhibition (full inhibition).

| IC50 [1] [nM] | IC50 [2] [nM] | IC50 [3] [nM] | SMILES | inhibition at 10 µM [4] [%] |
| --- | --- | --- | --- | --- |
| 230 | 2300 | 440 | NCCS(=O)(=O)C(F)C(=O)N1C[C@@H]2CN(c3ccc(F)cc3)C[C@@H]2C1 (mixture of isomers) [Example 18] |  |
| 150 | 660 | 220 | NCCS(=O)(=O)C(F)C(=O)N1C[C@@H]2CN(c3ccc(Br)cc3)C[C@@H]2C1 (stereo partly drawn) [Example 19, 2-((2-Aminoethyl)-sulfonyl)-2-fluoro-1-(cis-5-(4-bromo-phenyl)hexahydro-pyrrolo[3,4-c]pyrrol-2(1H)-yl)ethan-1-one] |  |
| 240 | 2400 | 340 | NCCS(=O)(=O)C(F)C(=O)N1C[C@@H]2CN(c3c(F)c(F)c(F)c(F)c3F)C[C@@H]2C1 (stereo partly drawn) [Example 20, 2-((2-aminoethyl)-sulfonyl)-2-fluoro-1-(cis-5-(perfluoro-phenyl)hexahydro-pyrrolo[3,4-c]pyrrol-2(1H)-yl)ethan-1-one] |  |

| SMILES | IC50 [1] [nM] | IC50 [2] [nM] | IC50 [3] [nM] | inhibition at 10 µM [4] [%] |
| --- | --- | --- | --- | --- |
| CCOc1ccc(N2C[C@H]3CN(C(=O)Nc4ccc(S(=O)(=O)CCN)cc4)C[C@@H]2C(C)(C)C3)cc1 [Example 37, (1S,5S)—N-(4-((2-aminoethyl)sulfonyl)phenyl)-6-(4-ethoxyphenyl)-9,9-dimethyl-3,6-diazabicyclo[3.2.2]nonane-3-carboxamide] | 20000 | 26000 |  | 78 |
